Measurements taken from PubChem BioAssay (NCI).
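Abbreviation: GI50, concentration required for 50% inhibition of growth. TGI marks complete inhibition of growth.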

How the values were obtained:
Assay in all cases: inhibition of tumour cell growth, NCI panel, 384-well format
786-0 renal = system: 786-0 renal
A498 renal = system: A498 renal
A549 NSCLC = system: A549 NSCLC
ACHN renal = system: ACHN renal
BT-549 breast = system: BT-549 breast
CAKI-1 renal = system: CAKI-1 renal
CCRF-CEM leukemia = system: CCRF-CEM leukemia
COLO 205 colon = system: COLO 205 colon
DU-145 prostate = system: DU-145 prostate
EKVX NSCLC = system: EKVX NSCLC
HCC-2998 colon = system: HCC-2998 colon
HCT-15 colon = system: HCT-15 colon
HL-60(TB) leukemia = system: HL-60(TB) leukemia
HOP-62 NSCLC = system: HOP-62 NSCLC
HOP-92 NSCLC = system: HOP-92 NSCLC
HS 578T breast = system: HS 578T breast
HT29 colon = system: HT29 colon
IGROV1 ovarian = system: IGROV1 ovarian
K-562 leukemia = system: K-562 leukemia
KM12 colon = system: KM12 colon
LOX IMVI melanoma = system: LOX IMVI melanoma
M14 melanoma = system: M14 melanoma
MALME-3M melanoma = system: MALME-3M melanoma
MCF7 breast = system: MCF7 breast
MDA-MB-231 breast = system: MDA-MB-231 breast
MDA-MB-435 melanoma = system: MDA-MB-435 melanoma
MDA-MB-468 breast = system: MDA-MB-468 breast
MOLT-4 leukemia = system: MOLT-4 leukemia
NCI-H226 lung = system: NCI-H226 lung
NCI-H23 lung = system: NCI-H23 lung
NCI-H322M lung = system: NCI-H322M lung
NCI-H460 NSCLC = system: NCI-H460 NSCLC
NCI-H522 lung = system: NCI-H522 lung
NCI/ADR-RES ovarian = system: NCI/ADR-RES ovarian
OVCAR-3 ovarian = system: OVCAR-3 ovarian
OVCAR-4 ovarian = system: OVCAR-4 ovarian
OVCAR-5 ovarian = system: OVCAR-5 ovarian
OVCAR-8 ovarian = system: OVCAR-8 ovarian
PC-3 prostate = system: PC-3 prostate
RPMI-8226 leukemia = system: RPMI-8226 leukemia
RXF 393 renal = system: RXF 393 renal
SF-268 CNS = system: SF-268 CNS
SF-295 CNS = system: SF-295 CNS
SF-539 CNS = system: SF-539 CNS
SK-MEL-28 melanoma = system: SK-MEL-28 melanoma
SK-MEL-5 melanoma = system: SK-MEL-5 melanoma
SK-OV-3 ovarian = system: SK-OV-3 ovarian
SN12C renal = system: SN12C renal
SNB-19 CNS = system: SNB-19 CNS
SNB-75 CNS = system: SNB-75 CNS
SR leukemia = system: SR leukemia
SW-620 colon = system: SW-620 colon
T-47D breast = system: T-47D breast
TK-10 renal = system: TK-10 renal
U251 glioblastoma = system: U251 glioblastoma
UACC-257 melanoma = system: UACC-257 melanoma
UACC-62 melanoma = system: UACC-62 melanoma
UO-31 renal = system: UO-31 renal

Cc1cc(Nc2cc(CN3CCOCC3)c3nc(C)c(Cc4ccc(Cl)cc4F)n3n2)n[nH]1
GI50 ([…]-0 renal): 0.688 µM
TGI (786-0 renal): 2.32 µM
GI50 (A498 renal): 0.724 µM
TGI (A498 renal): 3.29 µM
GI50 (A549 NSCLC): 0.772 µM
TGI (A549 NSCLC): 3.35 µM
GI50 (ACHN renal): 1.27 µM
TGI (ACHN renal): 7.95 µM
GI50 (BT-549 breast): 0.842 µM
TGI (BT-549 breast): 2.78 µM
GI50 (CAKI-1 renal): 1.03 µM
TGI (CAKI-1 renal): 2.24 µM
GI50 (CCRF-CEM leukemia): 0.276 µM
TGI (CCRF-CEM leukemia): 0.604 µM
GI50 (COLO 205 colon): 0.418 µM
TGI (COLO 205 colon): 1.66 µM
GI50 (DU-145 prostate): 1.02 µM
TGI (DU-145 prostate): 3 µM
GI50 (EKVX NSCLC): 1.58 µM
TGI (EKVX NSCLC): 8.09 µM
GI50 (HCC-2998 colon): 1.13 µM
TGI (HCC-2998 colon): 2.39 µM
GI50 (HCT-15 colon): 1.11 µM
TGI (HCT-15 colon): 12 µM
GI50 (HL-60(TB) leukemia): 0.302 µM
TGI (HL-60(TB) leukemia): 0.67 µM
GI50 (HOP-62 NSCLC): 1.05 µM
TGI (HOP-62 NSCLC): 2.95 µM
GI50 (HOP-92 NSCLC): 0.554 µM
TGI (HOP-92 NSCLC): 2.56 µM
GI50 (HS 578T breast): 0.586 µM
TGI (HS 578T breast): 1.81 µM
GI50 (HT29 colon): 1.73 µM
TGI (HT29 colon): 16.1 µM
GI50 (IGROV1 ovarian): 1.69 µM
TGI (IGROV1 ovarian): 3.36 µM
GI50 (K-562 leukemia): 0.38 µM
TGI (K-562 leukemia): 1.36 µM
GI50 (KM12 colon): 0.0378 µM
TGI (KM12 colon): 1.47 µM
GI50 (LOX IMVI melanoma): 0.868 µM
TGI (LOX IMVI melanoma): 2.13 µM
GI50 (M14 melanoma): 1.74 µM
TGI (M14 melanoma): 11.8 µM
GI50 (MALME-3M melanoma): 1.49 µM
TGI (MALME-3M melanoma): 9.79 µM
GI50 (MCF7 breast): 0.894 µM
TGI (MCF7 breast): 6.57 µM
GI50 (MDA-MB-231 breast): 1.07 µM
TGI (MDA-MB-231 breast): 3.02 µM
GI50 (MDA-MB-435 melanoma): 0.563 µM
TGI (MDA-MB-435 melanoma): 15.1 µM
GI50 (MDA-MB-468 breast): 0.271 µM
TGI (MDA-MB-468 breast): 0.535 µM
GI50 (MOLT-4 leukemia): 0.162 µM
TGI (MOLT-4 leukemia): 0.336 µM
GI50 (NCI-H226 lung): 0.324 µM
TGI (NCI-H226 lung): 2.08 µM
GI50 (NCI-H23 lung): 0.578 µM
TGI (NCI-H23 lung): 2.57 µM
GI50 (NCI-H322M lung): 1.71 µM
TGI (NCI-H322M lung): 4.68 µM
GI50 (NCI-H460 NSCLC): 0.356 µM
TGI (NCI-H460 NSCLC): 1.03 µM
GI50 (NCI-H522 lung): 0.366 µM
TGI (NCI-H522 lung): 1.11 µM
GI50 (NCI/ADR-RES ovarian): 2.52 µM
TGI (NCI/ADR-RES ovarian): 7.88 µM
GI50 (OVCAR-3 ovarian): 0.825 µM
TGI (OVCAR-3 ovarian): 2.96 µM
GI50 (OVCAR-4 ovarian): 0.874 µM
TGI (OVCAR-4 ovarian): 5.88 µM
GI50 (OVCAR-5 ovarian): 1.06 µM
TGI (OVCAR-5 ovarian): 3.58 µM
GI50 (OVCAR-8 ovarian): 1.37 µM
TGI (OVCAR-8 ovarian): 3.65 µM
GI50 (PC-3 prostate): 2.2 µM
TGI (PC-3 prostate): 13.7 µM
GI50 (RPMI-8226 leukemia): 0.205 µM
TGI (RPMI-8226 leukemia): 0.516 µM
GI50 (RXF 393 renal): 0.612 µM
TGI (RXF 393 renal): 2.36 µM
GI50 (SF-268 CNS): 0.439 µM
TGI (SF-268 CNS): 1.62 µM
GI50 (SF-295 CNS): 1.21 µM
TGI (SF-295 CNS): 2.7 µM
GI50 (SF-539 CNS): 1.08 µM
TGI (SF-539 CNS): 2.45 µM
GI50 (SK-MEL-28 melanoma): 2.39 µM
TGI (SK-MEL-28 melanoma): 15 µM
GI50 (SK-MEL-5 melanoma): 0.693 µM
TGI (SK-MEL-5 melanoma): 5.82 µM
GI50 (SK-OV-3 ovarian): 1.23 µM
TGI (SK-OV-3 ovarian): 3.38 µM
GI50 (SN12C renal): 0.73 µM
TGI (SN12C renal): 9.25 µM
GI50 (SNB-19 CNS): 1.85 µM
TGI (SNB-19 CNS): 4.25 µM
GI50 (SNB-75 CNS): 0.812 µM
TGI (SNB-75 CNS): 2.35 µM
GI50 (SR leukemia): 0.166 µM
TGI (SR leukemia): 0.312 µM
GI50 (SW-620 colon): 0.671 µM
TGI (SW-620 colon): 8.26 µM
GI50 (T-47D breast): 0.855 µM
TGI (T-47D breast): 14 µM
GI50 (TK-10 renal): 1.95 µM
TGI (TK-10 renal): 4.72 µM
GI50 (U251 glioblastoma): 1.2 µM
TGI (U251 glioblastoma): 2.75 µM
GI50 (UACC-257 melanoma): 5.45 µM
TGI (UACC-257 melanoma): 20.6 µM
GI50 (UACC-62 melanoma): 1.23 µM
TGI (UACC-62 melanoma): 2.99 µM
GI50 (UO-31 renal): 1.44 µM
TGI (UO-31 renal): 2.88 µM
